The results in this text go back to ChEMBL document CHEMBL5331122, “Structure-Activity Relationship Study of Antimicrobial Peptide PE2 Delivered Novel Linear Derivatives with Potential of Eradicating Biofilms and Low Incidence of Drug Resistance” (J Med Chem, 2023).

The term MIC denotes the lowest concentration found to suppress growth.

The subject of one data set is Enterococcus faecalis. The experiment in a line: Antibacterial activity against Enterococcus faecalis ATCC 29212 assessed as bacterial growth inhibition incubated for 18 hrs by broth microdilution method. It counts as functional. (In general: Dilution methods test growth across graded concentrations, often in twofold steps.)
The next data set concerns Pseudomonas aeruginosa. Nature of the data set: Antibacterial activity against Pseudomonas aeruginosa ATCC 27853 assessed as bacterial growth inhibition incubated for 18 hrs by broth microdilution method. The data set is classed as functional.
The test system of data set [1] is Escherichia coli. The experiment in a line: Antibacterial activity against Escherichia coli ATCC 25922 assessed as bacterial growth inhibition incubated for 18 hrs by broth microdilution method. The data set is classed as functional.
For another data set, the system named is Bacillus subtilis. Nature of the data set: Antibacterial activity against Bacillus subtilis ATCC 23857 assessed as bacterial growth inhibition incubated for 18 hrs by broth microdilution method. It counts as functional.
The test system of the next data set is Erythrocyte. The experiment in a line: Hemolytic activity in mouse red blood cell assessed as hemolysis incubated for 1 hr. The data set is classed as toxicity, cell-based. As to conditions: dose 4-256 µg/ml.
In the next data set the test system is Klebsiella pneumoniae. The experiment in a line: Antibacterial activity against Klebsiella pneumoniae ATCC 700603 assessed as bacterial growth inhibition incubated for 18 hrs by broth microdilution method. The data set is classed as functional.
The nature of data set [2]: Hemolytic activity in mouse red blood cells assessed as hemolysis at 256 microg/ml incubated for 1 hr relative to control. Conditions: red blood cells (erythrocytes), at 256 µg/mL, read-out: Activity. The data set is classed as toxicity, cell-based, Erythrocyte.
For data set [3], the system named is Staphylococcus aureus. Nature of the data set: Antibacterial activity against Staphylococcus aureus ATCC 25923 assessed as bacterial growth inhibition incubated for 18 hrs by broth microdilution method. It counts as functional.
The test system of data set [4] is Staphylococcus aureus. The experiment in a line: Antibacterial activity against Staphylococcus aureus ATCC 25923 assessed as fold increase in MIC in presence of ZnCl2. The data set is classed as functional.
The subject of data set [5] is Escherichia coli. Nature of the data set: Antibacterial activity against Escherichia coli ATCC 25922 assessed as fold increase in MIC in presence of KCl. The data set is classed as functional.
Data set [6] concerns Staphylococcus aureus. The experiment in a line: Antibacterial activity against Staphylococcus aureus ATCC 25923 assessed as fold increase in MIC in presence of MgCl2. It counts as functional.
The subject of data set [7] is Staphylococcus aureus. Nature of the data set: Antibacterial activity against Staphylococcus aureus ATCC 25923 assessed as fold increase in MIC in presence of KCl. It counts as functional.
Data set [8] relates to Escherichia coli. The experiment in a line: Antibacterial activity against Escherichia coli ATCC 25922 assessed as fold increase in MIC in presence of FeCl3. The data set is classed as functional.
The test system of data set [9] is Staphylococcus aureus. The experiment in a line: Antibacterial activity against Staphylococcus aureus ATCC 25923 assessed as fold increase in MIC in presence of FeCl3. The data set is classed as functional.
Data set [10] has as its system Escherichia coli. Nature of the data set: Antibacterial activity against Escherichia coli ATCC 25922 assessed as fold increase in MIC in presence of ZnCl2. It counts as functional.
The subject of data set [11] is Escherichia coli. Nature of the data set: Antibacterial activity against Escherichia coli ATCC 25922 assessed as fold increase in MIC in presence of MgCl2. The data set is classed as functional.
For data set [12], the system named is Staphylococcus aureus. Nature of the data set: Antibacterial activity against Staphylococcus aureus ATCC 25923 assessed as fold increase in MIC in presence of NaCl. The data set is classed as functional.
Data set [13] deals with Escherichia coli. The experiment in a line: Antibacterial activity against Escherichia coli ATCC 25922 assessed as fold increase in MIC in presence of NaCl. The data set is classed as functional.

Values after ≈ are worked out from the molar mass of the structure shown. Where a SMILES comes first, the peptide text is derived from it. Bridges are numbered along the chain shown (N, C = ends). [ ]: non-standard residue; d: D form. The star is where a group is joined. Heptanoyl(6-Me) = CC(C)CCCCC(=O)*; Dab = NCC[C@H](N)C(=O)O; Hexanoyl = CCCCCC(=O)*

Consider `CCCCCC(=O)N[C@@H](CCN)C(=O)N[C@H](C(=O)N[C@@H](CCN)C(=O)N[C@H](Cc1ccccc1)C(=O)N[C@@H](CC(C)C)C(=O)N[C@@H](CCN)C(=O)N[C@@H](C(=O)N[C@@H](CC(C)C)C(=O)N[C@@H](Cc1c[nH]c2ccccc12)C(N)=O)C(C)C)[C@@H](C)CC`, for which the minimal inhibitory concentration (MIC) with Enterococcus faecalis was found to be 32 µg/mL (≈ 26.9 µM); with Pseudomonas aeruginosa, 4 µg/mL (≈ 3.37 µM); with Escherichia coli [1], 16 µg/mL (≈ 13.5 µM); in the data set on Bacillus subtilis it was 4 µg/mL (≈ 3.37 µM); in the data set on Klebsiella pneumoniae, 32 µg/mL (≈ 26.9 µM); in the data set on Staphylococcus aureus [3], 8 µg/mL (≈ 6.74 µM). Besides, the HC10 with Erythrocyte was found to be 512 µg/mL. Further, the hemolysis at 1 h, 256 µg/mL in data set [2] is less than 5%.

For `CCCCCC(=O)N[C@@H](CCN)C(=O)N[C@H](C(=O)N[C@@H](CCN)C(=O)N[C@H](Cc1ccccc1)C(=O)N[C@@H](CC(C)C)C(=O)N[C@@H](CCN)C(=O)N[C@@H](C(=O)N[C@@H](CC(C)C)C(=O)N[C@H](C(N)=O)[C@@H](C)CC)C(C)C)[C@@H](C)CC`, the MIC in the data set with Enterococcus faecalis amounted to 128 µg/mL (≈ 115 µM); with Pseudomonas aeruginosa, 4 µg/mL (≈ 3.59 µM); in the data set on Escherichia coli [1], 16 µg/mL (≈ 14.4 µM); in the data set with Bacillus subtilis, 8 µg/mL (≈ 7.18 µM); with Klebsiella pneumoniae, 32 µg/mL (≈ 28.7 µM); in the data set on Staphylococcus aureus [3] it was 32 µg/mL (≈ 28.7 µM). Further, the HC10 with Erythrocyte came to 512 µg/mL. For the same compound, in data set [2], the hemolysis at 1 h, 256 µg/mL was less than 5%.

For the compound `CC[C@H](C)[C@H](NC(=O)[C@H](CCN)NC(=O)CC(O)C(C)C)C(=O)N[C@@H](CCN)C(=O)N[C@H](Cc1ccccc1)C(=O)N[C@@H](CC(C)C)C(=O)N[C@@H](CCN)C(=O)N[C@@H](C(=O)N[C@@H](CC(C)C)C(=O)N[C@H](C(N)=O)[C@@H](C)O)C(C)C` (some centres undefined), the minimum inhibitory concentration (MIC) is greater than 128 µg/mL in the data set with Enterococcus faecalis; 4 µg/mL (≈ 3.58 µM) in the data set with Pseudomonas aeruginosa; 32 µg/mL (≈ 28.6 µM) in the data set on Escherichia coli [1]; 8 µg/mL (≈ 7.15 µM) in the data set on Bacillus subtilis; 64 µg/mL (≈ 57.2 µM) with Klebsiella pneumoniae; greater than 128 µg/mL in the data set with Staphylococcus aureus [3]. Also, the HC10 in the data set on Erythrocyte stood at 512 µg/mL. Also, the hemolysis at 1 h, 256 µg/mL in data set [2] was less than 2%.

As for `CCC[C@H](O)CC(=O)N[C@@H](CCN)C(=O)N[C@H](C(=O)N[C@@H](CCN)C(=O)N[C@H](Cc1ccccc1)C(=O)N[C@@H](CC(C)C)C(=O)N[C@@H](CCN)C(=O)N[C@@H](C(=O)N[C@@H](CC(C)C)C(=O)N[C@H](C(N)=O)[C@@H](C)O)C(C)C)[C@@H](C)CC`, the minimal inhibitory concentration (MIC) is greater than 128 µg/mL with Enterococcus faecalis; 4 µg/mL (≈ 3.58 µM) in the data set with Pseudomonas aeruginosa; 32 µg/mL (≈ 28.6 µM) in the data set with Escherichia coli [1]; 8 µg/mL (≈ 7.15 µM) in the data set with Bacillus subtilis; 64 µg/mL (≈ 57.2 µM) with Klebsiella pneumoniae; 128 µg/mL (≈ 114 µM) in the data set with Staphylococcus aureus [3]. For the same compound, the HC10 with Erythrocyte came out at 512 µg/mL. The hemolysis at 1 h, 256 µg/mL in [2] is less than 2%.

For `CCCCCC(=O)N[C@@H](CCN)C(=O)N[C@H](C(=O)N[C@H]1CCNC(=O)[C@H]([C@@H](C)O)NC(=O)[C@H](CC(C)C)NC(=O)[C@@H](C(C)C)NC(=O)[C@H](CCN)NC(=O)[C@H](CC(C)C)NC(=O)[C@@H](Cc2ccccc2)NC1=O)[C@@H](C)CC`, the MIC in the data set on Enterococcus faecalis is 64 µg/mL (≈ 59 µM); in the data set on Pseudomonas aeruginosa, 64 µg/mL (≈ 59 µM); in the data set with Escherichia coli [1], 16 µg/mL (≈ 14.7 µM); with Bacillus subtilis it was 4 µg/mL (≈ 3.69 µM); with Klebsiella pneumoniae, 64 µg/mL (≈ 59 µM); with Staphylococcus aureus [3], 32 µg/mL (≈ 29.5 µM). For the same compound, the HC10 in the data set on Erythrocyte came to 512 µg/mL. For the same compound, in [2], the hemolysis at 1 h, 256 µg/mL is less than 5%.

In the case of `CCCCCC(=O)N[C@@H](CCN)C(=O)N[C@H](C(=O)N[C@@H](CCN)C(=O)N[C@H](Cc1ccccc1)C(=O)N[C@@H](CC(C)C)C(=O)N[C@@H](CCN)C(=O)N[C@@H](C(=O)N[C@@H](CC(C)C)C(=O)N[C@@H](CO)C(N)=O)C(C)C)[C@@H](C)CC` (Hexanoyl-[Dab]I[Dab][dF]L[Dab][dV]LS-NH2), the MIC in the data set with Enterococcus faecalis was found to be 128 µg/mL (≈ 118 µM); with Pseudomonas aeruginosa, 4 µg/mL (≈ 3.68 µM); with Escherichia coli [1], 32 µg/mL (≈ 29.4 µM); with Bacillus subtilis, 8 µg/mL (≈ 7.35 µM); with Klebsiella pneumoniae, 64 µg/mL (≈ 58.8 µM); in the data set with Staphylococcus aureus [3] it was 64 µg/mL (≈ 58.8 µM). In the data set on Erythrocyte, the HC10 stood at 512 µg/mL. The hemolysis at 1 h, 256 µg/mL in [2] was less than 5%.

`CC(C)CCCCC(=O)N[C@@H](CCN)C(=O)N[C@H](C(=O)N[C@@H](CCN)C(=O)N[C@H]1CCNC(=O)[C@H]([C@@H](C)O)NC(=O)[C@H](CCN)NC(=O)[C@H](CCN)NC(=O)[C@H](CC(C)C)NC(=O)[C@@H](Cc2ccccc2)NC(=O)[C@H](CCN)NC1=O)[C@@H](C)O` ({Heptanoyl(6-Me)}-[Dab]T[Dab][Dab][Dab][dF]L[Dab][Dab]T; lactam 4-C): the “fold change (FC)” value with Staphylococcus aureus [4] was 4; with Escherichia coli [5], “<=2”; in the data set with Staphylococcus aureus [6], 4; in the data set on Staphylococcus aureus [7], 4; with Escherichia coli [8], “<=2”; in the data set on Staphylococcus aureus [9], 4. The “fold change (FC)” value in the data set with Escherichia coli [10] is “<=2”; in the data set on Escherichia coli [11], “<=2”; with Staphylococcus aureus [12], 4; in the data set with Escherichia coli [13], “<=2”. For the same compound, the MIC is 128 µg/mL (≈ 108 µM) in the data set on Enterococcus faecalis; 2 µg/mL (≈ 1.68 µM) in the data set with Pseudomonas aeruginosa; less than 1 µg/mL in the data set on Escherichia coli [1]; 8 µg/mL (≈ 6.73 µM) in the data set with Bacillus subtilis; 4 µg/mL (≈ 3.36 µM) with Klebsiella pneumoniae; 16 µg/mL (≈ 13.5 µM) with Staphylococcus aureus [3].
